Laboratory results published in patent publication US5753635A, “Purine derivatives and their use as anti-coagulants” (Berlex Laboratories, Inc., priority 1996, dated 1998).
Non-standard residues stand in square brackets, D forms with d. Residues, ends and D or L forms follow the SMILES beside them. *: point of attachment. pNA = O=[N+]([O-])c1ccc(N*)cc1

How the values were obtained:
[1] = molecular target: T1, Human tissue plasminogen activator (tPA) (Two chains, Sigma) (Homo sapiens, UniProt P00750); assay: In vitro chromogenic assay for tissue plasminogen activator; format: biochemical; conditions: substrate concentration stated equal to Km; 10 nM tPA, pH 7.5, ambient temperature; read-out: Km (S2288)
T1 construct: purchased Sigma
Description: (§1) The activities were determined as an initial rate of cleavage of the peptide p-nitroanilide by the enzyme. The cleavage product, p-nitroaniline, absorbs at 405 nm with a molar extinction coefficient of 9920 M^-1 cm^-1.
(§2) 50 mM TrisHCl, 150 mM NaCl, 2.5 mM CaCl2, and 0.1% polyethylene glycol 6000, pH 7.5.
3. Human tissue plasminogen activator (tPA) (Two chains, Sigma) stock solution: 1 mg/mL, stored at -80° C. (working solution (2×): 1361 ng/mL in assay buffer, prepare prior to use).
3. S2288 (tPA assay) stock solution: 10 mM in dH2 O, stored at 4° C. (working solution (4×):
1484 μM in assay buffer).
Assays were performed in 96-well microtiter plates in a total volume of 200 μl. […] Concentrations of the standard inhibitor compound in the assay were from 5 μM to 0.021 μM in 1 to 3 dilution. Concentration of the test compounds in the assay typically were from 10 μM to 0.041 μM in 1 to 3 dilution. […]
(§3) The enzyme kinetics were measured at 405 nm at 10 seconds intervals for five minutes in a THERMOmax plate reader at ambient temperature.
(§4) Enzyme rates were calculated as mOD/min based on the first two minutes readings. The IC50 values were determined by fitting the data to the log-logit equation (linear) or the Morrison equation (non-linear) with an EXCEL spread-sheet. […]

Human thrombin = molecular target: T2, Human thrombin (Homo sapiens, UniProt P00734); assay: In vitro chromogenic assay for thrombin; format: biochemical; conditions: substrate concentration stated equal to Km; 20 nM thrombin, pH 7.5, ambient temperature; read-out: Km (S2302)
T2 construct: Human thrombin stock solution; purchased Enzyme Research Lab
Description: as §1, §2
2. Human thrombin stock solution: Stored at -80° C. (working solution (2×): 1200 ng/mL or 40 nM in assay buffer, prepare prior to use).
2. S2302 (Thrombin assay) stock solution: 10 mM in dH2 O, stored at 4° C. (working solution (4×): 1200 μM in assay buffer).
Assays were performed in 96-well microtiter plates in a total volume of 200 μl. […] Concentrations of the standard inhibitor compound in the assay were from 5 μM to 0.021 μM in 1 to 3 dilution. Concentration of the test compounds in the assay typically were from 10 μM to 0.041 μM in 1 to 3 dilution. For potent test compounds, the concentrations used in the factor Xa assays were further diluted 100 fold (100 nM to 0.41 nM) or 1000 fold (10 nM to 0.041 nM). […]
as §3, §4

T1 sequence (P00750 311-562 limits assumed): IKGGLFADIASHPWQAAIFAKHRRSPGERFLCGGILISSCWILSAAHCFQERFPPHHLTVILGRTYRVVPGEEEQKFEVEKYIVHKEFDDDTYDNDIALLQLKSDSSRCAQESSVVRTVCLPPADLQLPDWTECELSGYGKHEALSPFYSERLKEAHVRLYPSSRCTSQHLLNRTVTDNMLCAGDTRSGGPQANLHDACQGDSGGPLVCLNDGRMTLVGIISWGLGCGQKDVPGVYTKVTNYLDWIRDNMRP
T1 sequence (P00750 36-310 partner limits assumed): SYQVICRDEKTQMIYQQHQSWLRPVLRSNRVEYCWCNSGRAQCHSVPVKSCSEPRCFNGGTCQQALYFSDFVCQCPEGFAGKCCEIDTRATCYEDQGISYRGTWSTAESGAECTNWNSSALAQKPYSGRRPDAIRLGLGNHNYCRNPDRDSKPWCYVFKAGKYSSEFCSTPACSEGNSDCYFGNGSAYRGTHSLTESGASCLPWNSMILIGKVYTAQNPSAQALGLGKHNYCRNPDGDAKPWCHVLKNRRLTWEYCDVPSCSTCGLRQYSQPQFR

| Structure (SMILES) | Km [1] [µM] | Km (Human thrombin) [µM] |
| --- | --- | --- |
| CC[C@@H](C)[C@@H](N)C(=O)N1CCC[C@H]1C(=O)N[C@@H](CCCN=C(N)N)C(=O)Nc1ccc([N+](=O)[O-])cc1 [Example S2288] (H-[dI]-Pro-Arg-pNA) | 371 |  |
| N=C(N)NCCC[C@H](NC(=O)[C@H](Cc1ccccc1)NC(=O)[C@H]1CCCN1)C(=O)Nc1ccc([N+](=O)[O-])cc1 [Example S2302] (H-[dP]-Phe-Arg-pNA) |  | 300 |
